Measurements published in US20260306641A1, “HELICASE DEGRADERS” (priority 2023, published 2026).

Legend:
[1] = test system: MCM/CMG and replisome proteins in HaCaT cells; experiment: Immunoblots of chromatin-bound or total proteins, synchronized HaCaT cells; format: cell-based, human
[2] = test system: T1, human CMG helicase (hCMG); experiment: hCMG helicase fork-unwinding (strand displacement) assay; format: biochemical
T1 construct: made in house; host or cells: High Five insect cells, baculovirus (11 viruses co-infected)
Experimental: The human CMG helicase was purified following the established and validated protocol of Hurwitz and colleagues(19,20), with minor modifications. A detailed description of the approach is shown here, to allow for comparisons to the methods described by the Hurwitz group.
High Five insect cells (2-3 million cells/ml, 1.5 L), were in cultured in a shaking incubator at 27° C. in suspension with ESF921 serum free medium (Expression Systems, CA; cat. #96-001-01), then co-infected for 60 hrs with 11 baculoviruses expressing human 6His2Flag-Cdc45, the human MCM hexamer (Mcm2, Mcm3, Mcm4, Mem5, Mcm6, Mcm7), and human GINS (GST-Sld5, Psf3, Psf2, and Psf1). Each virus was infected at an MOI of ~10 from individual virus stocks. Infected cells were harvested by centrifugation at 650×g for 5 min at 4° C., washed with cold PBS, frozen on dry ice, and stored at −80° C. until use. The cell pellet (~20 mL) was thawed on ice, resuspended in 45 ml Hypotonic Buffer [20 mM Hepes-NaOH (pH 7.5), 5 mM KCl, 1.5 mM MgCl2] with protease inhibitors (1 mM [COMPOUND LEFT OUT], 1 mM Benzamidine, 0.15 μM Aprotinin, 4 μM Leupeptin, and 1 μM Antipain), and kept on ice for 10 min before lysing by Dounce homogenization (tight fitting, 60 strokes). The cell extract was adjusted to 0.42 M potassium acetate and centrifuged at 43,000×g for 1 hr at 4° C. The cleared lysate was mixed with 0.75 ml glutathione beads (cat. #17-0756-05; GE Healthcare) pre-equilibrated with FEQ buffer [20 mM Hepes-NaOH (pH 7.5), 0.42 M potassium acetate, 5 mM KCl, 1.5 mM MgCl2] and incubated by rotation at 4° C. overnight. Following centrifugation at 290×g at 4° C., the bound glutathione beads were washed four times (15 min each wash) with 40 ml of FW buffer [20 mM Hepes-NaOH (pH 7.5), 0.42 M potassium acetate, 1 mM DTT, 1 mM EDTA, 0.01% NP40, 10% glycerol (vol/vol) with protease inhibitors as above] containing protease inhibitors (as above). Bound proteins were eluted at 4° C. three times (1 hr each elution) with 3.5 ml Q buffer [20 mM Hepes-NaOH (pH 7.5), 1 mM DTT, 1 mM EDTA, 0.01% NP40, 10% glycerol (vol/vol), and protease inhibitors as above] containing 0.15 M potassium acetate and 20 mM reduced glutathione. The eluted fractions were combined and applied to a HiTrap Q-Sepharose FF column (HiTrap Q FF 1 mL, cat. #17505301, Cytiva), pre-equilibrated 3× with 5 ml of Q buffer containing 0.15 M, 0.75 M, 0.15M potassium acetate, in sequence. The Q-Sepharose FF column was washed with 10 ml of FW buffer containing protease inhibitors (as above). The proteins were eluted with 10 ml of Q buffer containing 0.75 M potassium acetate. The eluted fraction was mixed with 0.15 ml of anti-Flag M2 affinity gel/beads and incubated while rotating at 4° C. overnight. After centrifugation at 290×g for 5 min at 4° C., the beads were washed three times with 10 ml PreScission buffer [50 mM Tris-HCl (pH 7.5), 0.15 M NaCl, 1 mM DTT, 1 mM EDTA] for 15 min at 4° C., and eluted at 4° C. three times (1 hr each elution) with 0.2 ml PreScission enzyme buffer containing 0.2 mg/ml 3×-Flag peptides. The combined eluates were incubated with 20 Units of PreScission Protease (GE Healthcare) and 0.1 mL glutathione beads for 4 hr at 4° C. The supernatant was layered onto a 15-40% glycerol gradient [25 mM Tris-HCl (pH 7.5), 50 mM NaCl, 1 mM DTT, 1 mM EDTA, 0.01% NP40, protease inhibitors as above] in a 5 mL ultra-centrifugation tube and centrifuged at 260,000×g for 14 hr at 4° C. Glycerol fractions (0.15 mL each fraction) were collected from bottom of tube and stored at −80° C. until use. Typically, fractions 6-9 contained complete hCMG (~750-800 kDa) and co-migrated with thyroglobulin.
Helicase fork-unwinding assays were performed at 37° C. for 1 hr in 20 μL reaction volumes using 2-4 μl of hCMG (~15-30 fmol), in a buffer consisting of 25 mM Hepes-NaOH (pH 7.5), 5 mM NaCl, 0.5 mM ATP, 10 mM magnesium acetate, 1 mM DTT, 0.1 mg/ml bovine serum albumin (BSA), and ~10 fmol of radiolabeled DNA forks (20). […]

[3] = treated at 18 hr (early S-phase)

T1 sequence (P49736 whole entry): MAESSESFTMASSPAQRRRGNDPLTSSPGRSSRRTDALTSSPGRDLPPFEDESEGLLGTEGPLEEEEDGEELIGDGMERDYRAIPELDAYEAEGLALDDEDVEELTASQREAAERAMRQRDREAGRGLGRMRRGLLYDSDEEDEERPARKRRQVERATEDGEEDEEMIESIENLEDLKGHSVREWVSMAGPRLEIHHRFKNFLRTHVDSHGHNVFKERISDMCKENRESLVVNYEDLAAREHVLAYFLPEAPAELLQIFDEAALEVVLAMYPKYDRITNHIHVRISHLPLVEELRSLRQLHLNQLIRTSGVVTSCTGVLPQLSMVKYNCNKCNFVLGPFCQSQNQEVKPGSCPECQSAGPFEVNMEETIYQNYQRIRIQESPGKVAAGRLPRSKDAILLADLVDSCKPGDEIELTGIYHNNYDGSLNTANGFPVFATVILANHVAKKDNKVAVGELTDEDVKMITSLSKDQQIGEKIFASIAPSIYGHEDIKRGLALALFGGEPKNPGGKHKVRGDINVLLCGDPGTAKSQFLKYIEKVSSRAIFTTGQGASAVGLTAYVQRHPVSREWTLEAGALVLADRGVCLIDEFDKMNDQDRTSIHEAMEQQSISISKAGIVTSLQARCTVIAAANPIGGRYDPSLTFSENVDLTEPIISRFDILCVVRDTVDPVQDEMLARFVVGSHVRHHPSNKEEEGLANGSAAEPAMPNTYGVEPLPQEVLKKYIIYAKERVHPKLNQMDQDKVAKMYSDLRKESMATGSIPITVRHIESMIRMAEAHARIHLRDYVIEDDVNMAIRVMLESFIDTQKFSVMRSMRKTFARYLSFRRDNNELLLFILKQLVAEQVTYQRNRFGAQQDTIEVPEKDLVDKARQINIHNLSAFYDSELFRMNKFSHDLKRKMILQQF
T1 sequence (P25205 whole entry, further chain): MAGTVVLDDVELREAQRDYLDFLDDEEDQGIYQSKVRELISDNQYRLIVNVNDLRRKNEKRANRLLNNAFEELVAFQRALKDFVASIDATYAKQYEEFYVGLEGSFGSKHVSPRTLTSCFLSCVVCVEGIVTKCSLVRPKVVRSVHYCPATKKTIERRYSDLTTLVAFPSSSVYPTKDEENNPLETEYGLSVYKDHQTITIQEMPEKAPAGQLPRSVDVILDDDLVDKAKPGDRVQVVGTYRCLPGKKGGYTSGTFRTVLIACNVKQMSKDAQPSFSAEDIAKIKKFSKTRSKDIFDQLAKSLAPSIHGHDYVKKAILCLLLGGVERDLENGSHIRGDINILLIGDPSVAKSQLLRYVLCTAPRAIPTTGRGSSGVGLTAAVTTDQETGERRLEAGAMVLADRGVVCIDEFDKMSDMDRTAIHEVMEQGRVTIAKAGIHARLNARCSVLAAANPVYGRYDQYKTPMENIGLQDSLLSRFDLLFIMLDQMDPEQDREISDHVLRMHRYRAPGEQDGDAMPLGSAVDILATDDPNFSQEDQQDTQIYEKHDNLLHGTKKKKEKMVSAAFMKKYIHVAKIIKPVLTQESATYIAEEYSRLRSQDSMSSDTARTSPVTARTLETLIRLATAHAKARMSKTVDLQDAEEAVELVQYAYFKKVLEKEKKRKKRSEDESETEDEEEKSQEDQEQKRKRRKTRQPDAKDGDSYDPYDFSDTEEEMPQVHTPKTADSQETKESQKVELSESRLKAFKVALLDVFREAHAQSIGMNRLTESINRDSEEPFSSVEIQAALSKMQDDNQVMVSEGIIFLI
T1 sequence (P33991 whole entry, further chain): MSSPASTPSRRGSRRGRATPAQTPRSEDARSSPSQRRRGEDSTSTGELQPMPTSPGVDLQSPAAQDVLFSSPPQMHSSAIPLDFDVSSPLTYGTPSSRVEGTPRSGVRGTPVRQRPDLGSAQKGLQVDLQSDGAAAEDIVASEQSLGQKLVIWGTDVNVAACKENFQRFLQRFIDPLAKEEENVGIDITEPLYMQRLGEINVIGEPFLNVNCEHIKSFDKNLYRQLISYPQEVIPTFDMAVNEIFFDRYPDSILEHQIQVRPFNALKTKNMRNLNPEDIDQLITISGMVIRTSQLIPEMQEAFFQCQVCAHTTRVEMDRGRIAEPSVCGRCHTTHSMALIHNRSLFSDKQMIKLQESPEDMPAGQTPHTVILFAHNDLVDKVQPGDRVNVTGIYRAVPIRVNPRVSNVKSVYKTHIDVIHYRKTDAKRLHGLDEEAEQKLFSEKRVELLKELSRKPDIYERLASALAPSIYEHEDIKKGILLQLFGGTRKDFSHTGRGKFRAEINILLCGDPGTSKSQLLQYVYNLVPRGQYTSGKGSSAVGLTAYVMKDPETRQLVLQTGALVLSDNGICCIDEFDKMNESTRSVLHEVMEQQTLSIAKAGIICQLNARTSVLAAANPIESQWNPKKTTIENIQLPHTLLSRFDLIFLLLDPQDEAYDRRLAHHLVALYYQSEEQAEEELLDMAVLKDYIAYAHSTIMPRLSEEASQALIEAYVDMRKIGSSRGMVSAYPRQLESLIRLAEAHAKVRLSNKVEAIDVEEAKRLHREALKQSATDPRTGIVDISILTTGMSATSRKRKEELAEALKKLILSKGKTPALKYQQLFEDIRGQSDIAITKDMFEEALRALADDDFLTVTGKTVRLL
T1 sequence (P33992 whole entry, further chain): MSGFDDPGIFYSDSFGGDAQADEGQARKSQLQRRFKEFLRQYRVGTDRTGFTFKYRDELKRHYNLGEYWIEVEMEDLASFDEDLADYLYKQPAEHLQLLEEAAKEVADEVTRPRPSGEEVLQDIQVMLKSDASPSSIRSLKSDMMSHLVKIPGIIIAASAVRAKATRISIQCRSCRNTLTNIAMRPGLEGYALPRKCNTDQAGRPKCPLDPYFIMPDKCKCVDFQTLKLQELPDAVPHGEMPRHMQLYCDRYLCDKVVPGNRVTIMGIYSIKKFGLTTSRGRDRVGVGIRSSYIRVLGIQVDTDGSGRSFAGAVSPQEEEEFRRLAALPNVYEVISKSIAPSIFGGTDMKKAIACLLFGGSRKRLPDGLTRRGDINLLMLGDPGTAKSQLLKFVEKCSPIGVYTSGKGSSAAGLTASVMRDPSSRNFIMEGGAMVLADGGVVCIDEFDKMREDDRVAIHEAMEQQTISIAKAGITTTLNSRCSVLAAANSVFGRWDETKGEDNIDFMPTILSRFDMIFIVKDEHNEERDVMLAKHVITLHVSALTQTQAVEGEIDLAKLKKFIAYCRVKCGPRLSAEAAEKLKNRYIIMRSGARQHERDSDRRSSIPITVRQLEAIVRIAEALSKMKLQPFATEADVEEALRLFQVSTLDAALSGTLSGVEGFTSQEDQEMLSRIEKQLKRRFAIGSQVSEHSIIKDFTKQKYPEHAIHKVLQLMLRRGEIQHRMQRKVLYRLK
T1 sequence (Q14566 whole entry, further chain): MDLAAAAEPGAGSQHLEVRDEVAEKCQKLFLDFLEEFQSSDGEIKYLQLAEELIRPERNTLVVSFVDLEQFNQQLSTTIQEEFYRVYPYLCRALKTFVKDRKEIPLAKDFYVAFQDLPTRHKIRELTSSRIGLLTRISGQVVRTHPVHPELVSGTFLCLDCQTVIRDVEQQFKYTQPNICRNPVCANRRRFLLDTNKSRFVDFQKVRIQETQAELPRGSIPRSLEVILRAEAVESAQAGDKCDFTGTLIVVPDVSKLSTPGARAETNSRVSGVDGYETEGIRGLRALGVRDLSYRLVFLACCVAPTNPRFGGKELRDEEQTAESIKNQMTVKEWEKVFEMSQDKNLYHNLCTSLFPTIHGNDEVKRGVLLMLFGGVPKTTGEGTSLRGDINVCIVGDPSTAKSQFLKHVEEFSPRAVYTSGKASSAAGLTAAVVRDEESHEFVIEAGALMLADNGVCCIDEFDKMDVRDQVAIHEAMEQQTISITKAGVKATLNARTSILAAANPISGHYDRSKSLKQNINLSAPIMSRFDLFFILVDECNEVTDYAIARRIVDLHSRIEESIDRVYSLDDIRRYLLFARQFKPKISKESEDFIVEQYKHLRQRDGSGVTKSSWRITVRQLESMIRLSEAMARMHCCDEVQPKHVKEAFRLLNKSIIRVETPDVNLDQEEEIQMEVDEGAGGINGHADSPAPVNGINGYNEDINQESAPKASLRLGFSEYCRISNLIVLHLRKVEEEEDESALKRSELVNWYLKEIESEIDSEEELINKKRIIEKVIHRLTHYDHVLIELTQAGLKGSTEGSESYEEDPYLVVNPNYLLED
T1 sequence (P33993 whole entry, further chain): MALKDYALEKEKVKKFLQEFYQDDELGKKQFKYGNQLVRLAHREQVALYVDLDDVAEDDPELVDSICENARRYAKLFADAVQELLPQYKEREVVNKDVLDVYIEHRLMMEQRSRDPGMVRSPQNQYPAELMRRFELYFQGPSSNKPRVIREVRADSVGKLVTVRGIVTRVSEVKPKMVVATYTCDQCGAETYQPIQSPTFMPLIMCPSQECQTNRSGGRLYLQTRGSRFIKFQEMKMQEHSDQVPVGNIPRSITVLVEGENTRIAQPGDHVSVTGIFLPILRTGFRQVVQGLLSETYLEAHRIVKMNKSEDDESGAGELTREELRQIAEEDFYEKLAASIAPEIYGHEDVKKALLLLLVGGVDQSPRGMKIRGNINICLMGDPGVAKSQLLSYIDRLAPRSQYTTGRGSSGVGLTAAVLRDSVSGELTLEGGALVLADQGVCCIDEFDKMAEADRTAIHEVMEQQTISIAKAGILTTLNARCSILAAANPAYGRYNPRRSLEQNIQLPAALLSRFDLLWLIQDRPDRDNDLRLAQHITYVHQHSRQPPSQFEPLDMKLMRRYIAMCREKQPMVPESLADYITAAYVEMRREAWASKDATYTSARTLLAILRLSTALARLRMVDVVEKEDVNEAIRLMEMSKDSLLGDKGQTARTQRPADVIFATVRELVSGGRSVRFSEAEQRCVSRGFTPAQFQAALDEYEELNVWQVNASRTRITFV

CO[C@@H]1[C@@H](OC(=O)c2ccc(C)[nH]2)[C@@H](O)[C@H](Oc2ccc3c(O)c(NC(=O)c4c[nH]c(C(=O)Nc5c(O)c6ccc(O[C@@H]7OC(C)(C)[C@H](OC)[C@@H](OC(=O)c8ccc(C)[nH]8)[C@H]7O)c(C)c6oc5=O)c4C)c(=O)oc3c2C)OC1(C)C [CA1]
Ctf4 and Mcm10 on chromatin ([1]; S-phase cells): reduced on chromatin | DNA polymerases-a, -d and -e on chromatin ([1]; S-phase cells): caused a loss of DNA polymerases-a, -d, and -e from chromatin | RPA on chromatin ([1]; S-phase cells): reduced on chromatin | GINS and Cdc45 loading onto chromatin ([1]; early-G1 treatment): blocked | Orc2 chromatin binding ([1]; early-G1 treatment): not affected | MCM loading onto chromatin ([1]; early-G1 treatment, assessed 18 hrs): significantly inhibited | Cdc45 recruitment ([1]; late-G1 treatment (12 hrs)): not appreciably affected | Cdt1 dynamics ([1]; late-G1 treatment (12 hrs)): does not affect Cdt1 dynamics | GINS recruitment to DNA-loaded MCM hexamers ([1]; late-G1 treatment (12 hrs)): inhibits GINS recruitment to DNA-loaded MCM hexamers | remainder of MCM loading ([1]; late-G1 treatment (12 hrs)): only a small effect, if any | Cdc6 chromatin association, polyclonal antibody ([1]; middle G1 exposure): not affected in chromatin association | Cdc6 form on chromatin, monoclonal antibody ([1]; middle G1 exposure): sensitive to CA1 | Orc2 and Orc4 affinity for chromatin ([1]; middle G1 exposure): not affected | Cdt1 loading on chromatin ([1]; treated at 6 hrs (middle G1)): blocks this Cdt1 loading | MCMs already loaded on chromatin ([1]; treated at 6 hrs (middle G1)): does not affect MCMs already loaded | increase in MCM loading at 12 hrs ([1]; treated at 6 hrs (middle G1)): inhibited by CA1 | total Cdt1 ([1]; treated at 6 hrs (middle G1)): promotes loss of total Cdt1 | GINS and Cdc45 chromatin association [1, 3]: notably suppressed | total protein levels of Psf3 and Cdc45 [1, 3]: slightly affected | hCMG helicase inhibition in secondary strand-displacement assay ([2]; 500 μM compound): effective hCMG helicase inhibitors | inhibition of hCMG helicase activity, SAR set ([2]; 500 μM compound): potently inhibit the hCMG | hCMG helicase activity inhibition ([2]; fork-unwinding, ~15 fmol hCMG, 0.5 mM ATP): 100% | mode of inhibition of hCMG helicase activity ([2]; role: inhibitor, CA1 2.5 μM, increasing ATP): classic ATP-competitive mechanism

CO[C@@H]1[C@@H](OC(N)=O)[C@@H](O)[C@H](Oc2ccc3c(O)c(NC(=O)c4ccc(O)c(CC=C(C)C)c4)c(=O)oc3c2C)OC1(C)C [novobiocin]
increase in MCM loading at 12 hrs ([1]; treated at 6 hrs (middle G1)): not by novobiocin | inhibition of hCMG helicase activity, SAR set ([2]; 500 μM compound): only a small level of inhibition
